The record followed here is patent US20260109732A1, “LIPID AMINES” (ModernaTX, Inc., priority 2021, published 2026).

Structures can show the parent of a compound that is named as a salt.

Data set [1] in a line: Diameter and PDI from DLS measurements of mRNA nanoparticles with lipid amines. It counts as physicochemical. An outline of the steps:
(§1)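 Ionizable lipid nanoparticles (IL1:DSPC:cholesterol:PEG-DMG-2K) formed by vortex mixing at pH 4, loaded with luciferase or CFTR mRNA at N:P 4.93, neutralized with TRIS pH 8.12, then modified with lipid amine SA50 at pH 7.5. Particle diameter and PDI read by DLS; mRNA encapsulation by Ribogreen assay.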

Data set [2] has as its system HeLa cells. Kind of data set: CFTR Protein Expression Assay in HeLa Cells. It counts as cell-based, Human. The conditions noted are these: LNPs encapsulating CFTR mRNA, N=4 wells; 5 h serum-free then 24 h; immunofluorescence vs PBS control. An outline of the steps: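 HeLa cells dosed with CFTR mRNA LNPs (70 mM NaCl final buffer matrix) in serum-free MEM for 5 h, then complete MEM for 24 h. Fixed cells immunostained with anti-CFTR monoclonal and Alexa 488 secondary, imaged confocally; CFTR intensity per cell expressed as fold-change versus PBS buffer control, N=4 wells.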

Data set [3] has as its system HeLa cells. Kind of data set: Luciferase Protein Expression Assay in HeLa Cells. The conditions noted are these: LNPs encapsulating Luciferase mRNA, 25 ng per well, N=4 wells; 5 h serum-free then 24 h; ONE-Glo. It counts as cell-based, Human. An outline of the steps:
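HeLa cells received LNPs carrying luciferase mRNA (25 ng per well) or PBS in serum-free MEM for 5 h, then complete MEM for a further 24 h. Luciferase then read by ONE-Glo luminescence after lysis and reported as average RLU of 4 replicate wells.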

A short description of data set [4]: Encapsulation of mRNA nanoparticles with lipid amines using Ribogreen assay. It counts as physicochemical. An outline of the steps:
as §1

The mark [5] stands for this setting: CFTR mRNA nanoparticle with lipid amine.
The mark [6] stands for this setting: Luciferase mRNA nanoparticle modified with lipid amine.

Regarding `CC(C)CCC[C@@H](C)[C@H]1CC[C@H]2[C@@H]3CC=C4C[C@@H](OC(=O)N(CCCCCCCC(C)(C)N)CCC(C)(C)N)CC[C@]4(C)[C@H]3CC[C@]12C` [SA152, (3S,8S,9S,10R,13R,14S,17R)-10,13-dimethyl-17-((R)-6-methylheptan-2-yl)-2,3,4,7,8,9,10,11,12,13,14,15,16,17-tetradecahydro-1H-cyclopenta[a]phenanthren-3-yl (3-amino-3-methylbutyl)(8-amino-8-methylnonyl)carbamate dihydrochloride], the “Diameter (nm)” value is listed as 71.6 nm in data set [1] (setting [5]) and 78 nm in data set [1] (setting [6]). Besides, the PDI in data set [1] (setting [5]) stood at 0.14; in data set [1] (setting [6]) it was 0.15. Also, the “Average fold-change in CFTR signal intensity per cell compared to buffer control ± standard deviation” value with HeLa cells [2] is listed as 20.6 ± 1.6 fold-change. Further, the “Average Relative Light Units ± Standard Deviation” value with HeLa cells [3] is listed as 41692.8 ± 9336.8 Relative Light Units. The figures for the “% Encapsulation (Ribogreen)” value in data set [4] (setting [5]) and in data set [4] (setting [6]) were 98.4% and 98.2%, respectively.

As for `CC(C)CCC[C@@H](C)[C@H]1CC[C@H]2[C@@H]3CC=C4C[C@@H](OC(=O)N(CCC(C)(C)N)CCC(C)(C)N)CC[C@]4(C)[C@H]3CC[C@]12C` [SA158, (3S,8S,9S,10R,13R,14S,17R)-10,13-dimethyl-17-((R)-6-methylheptan-2-yl)-2,3,4,7,8,9,10,11,12,13,14,15,16,17-tetradecahydro-1H-cyclopenta[a]phenanthren-3-yl bis(3-amino-3-methylbutyl)carbamate dihydrochloride], the “Diameter (nm)” value in data set [1] (setting [5]) came to 72.4 nm; in data set [1] (setting [6]), 79 nm. Also, the PDI was 0.15 in data set [1] (setting [5]) and 0.28 in data set [1] (setting [6]). The “Average fold-change in CFTR signal intensity per cell compared to buffer control ± standard deviation” value with HeLa cells [2] is given as 20.4 ± 1.3 fold-change. Besides, the “Average Relative Light Units ± Standard Deviation” value in the data set on HeLa cells [3] is listed as 33097.8 ± 7405.1 Relative Light Units. In addition, the “% Encapsulation (Ribogreen)” value in data set [4] (setting [5]) came out at 98.3%; in data set [4] (setting [6]) it was 99.7%.

For `CC[C@H](CC[C@@H](C)[C@H]1CC[C@H]2[C@@H]3CC=C4C[C@@H](OC(=O)N(CCCN)CCCCCCCCCCN)CC[C@]4(C)[C@H]3CC[C@]12C)C(C)C` [SA96, (3S,8S,9S,10R,13R,14S,17R)-17-((2R,5R)-5-Ethyl-6-methylheptan-2-yl)-10,13-dimethyl-2,3,4,7,8,9,10,11,12,13,14,15,16,17-tetradecahydro-1H-cyclopenta[a]phenanthren-3-yl (10-aminodecyl)(3-aminopropyl)carbamate dihydrochloride], the “Diameter (nm)” value amounted to 82.3 nm in data set [1] (setting [5]) and 71 nm in data set [1] (setting [6]). Besides, the PDI in data set [1] (setting [5]) is 0.12; in data set [1] (setting [6]), 0.15. The “Average fold-change in CFTR signal intensity per cell compared to buffer control ± standard deviation” value in the data set with HeLa cells [2] is given as 5.2 ± 0.7 fold-change. Also, in the data set on HeLa cells [3], the “Average Relative Light Units ± Standard Deviation” value is 17172.8 ± 2176 Relative Light Units. For the same compound, the entries for the “% Encapsulation (Ribogreen)” value in data set [4] (setting [5]) and in data set [4] (setting [6]) were 98.9% and 99.6%, respectively.

For `CC(C)CCC[C@@H](C)[C@H]1CC[C@H]2[C@@H]3CC=C4C[C@@H](OC(=O)N(CCCCNCCC5(N)CC5)CCC5(N)CC5)CC[C@]4(C)[C@H]3CC[C@]12C` [SA124, (3S,8S,9S,10R,13R,14S,17R)-10,13-dimethyl-17-((R)-6-methylheptan-2-yl)-2,3,4,7,8,9,10,11,12,13,14,15,16,17-tetradecahydro-1H-cyclopenta[a]phenanthren-3-yl (2-(1-aminocyclopropyl)ethyl)(4-((2-(1-aminocyclopropyl)ethyl)amino)butyl)carbamate trihydrochloride], the “Diameter (nm)” value in data set [1] (setting [5]) was 72.0 nm; in data set [1] (setting [6]), 74 nm. In addition, the figures for the PDI in data set [1] (setting [5]) and in data set [1] (setting [6]) were 0.10 and 0.14, respectively. Besides, the “Average fold-change in CFTR signal intensity per cell compared to buffer control ± standard deviation” value in the data set with HeLa cells [2] was 15.0 ± 1.2 fold-change. In the data set with HeLa cells [3], the “Average Relative Light Units ± Standard Deviation” value came out at 45805.9 ± 5630.6 Relative Light Units. In addition, the “% Encapsulation (Ribogreen)” value in data set [4] (setting [5]) turned out to be 98.3%; in data set [4] (setting [6]), 99.8%.

As to `CC(C)CCC[C@@H](C)[C@H]1CC[C@H]2[C@@H]3CC=C4C[C@@H](OC(=O)C(=O)N(CCCN)CCCCNCCCN)CC[C@]4(C)[C@H]3CC[C@]12C` [SA66, (3S,8S,9S,10R,13R,14S,17R)-10,13-Dimethyl-17-((R)-6-methylheptan-2-yl)-2,3,4,7,8,9,10,11,12,13,14,15,16,17-tetradecahydro-1H-cyclopenta[a]phenanthren-3-yl 2-((3-aminopropyl)(4-((3-aminopropyl)amino)butyl)amino)-2-oxoacetate trihydrochloride], the “Diameter (nm)” value was found to be 75.7 nm in data set [1] (setting [5]) and 72 nm in data set [1] (setting [6]). Further, the PDI turned out to be 0.13 in data set [1] (setting [5]) and 0.18 in data set [1] (setting [6]). Also, the “Average fold-change in CFTR signal intensity per cell compared to buffer control ± standard deviation” value in the data set with HeLa cells [2] worked out at 2.4 ± 0.1 fold-change. Moreover, the “Average Relative Light Units ± Standard Deviation” value with HeLa cells [3] stood at 13951.3 ± 6740.3 Relative Light Units. Moreover, the figures for the “% Encapsulation (Ribogreen)” value in data set [4] (setting [5]) and in data set [4] (setting [6]) were 99.5% and 88.2%, respectively.

In the case of `CC[C@H](CC[C@@H](C)[C@H]1CC[C@H]2[C@@H]3CC=C4C[C@@H](OC(=O)N(CCCCCCN)CCCCCCN)CC[C@]4(C)[C@H]3CC[C@]12C)C(C)C` [SA82, (3S,8S,9S,10R,13R,14S,17R)-17-((2R,5R)-5-Ethyl-6-methylheptan-2-yl)-10,13-dimethyl-2,3,4,7,8,9,10,11,12,13,14,15,16,17-tetradecahydro-1H-cyclopenta[a]phenanthren-3-yl bis(6-aminohexyl)carbamate dihydrochloride], the “Diameter (nm)” value is listed as 80.7 nm in data set [1] (setting [5]) and 73 nm in data set [1] (setting [6]). The PDI in data set [1] (setting [5]) stood at 0.13; in data set [1] (setting [6]), 0.11. For the same compound, the “Average fold-change in CFTR signal intensity per cell compared to buffer control ± standard deviation” value in the data set with HeLa cells [2] amounted to 4.6 ± 0.2 fold-change. Also, the “Average Relative Light Units ± Standard Deviation” value in the data set with HeLa cells [3] stood at 33396.2 ± 4902.7 Relative Light Units. Moreover, the “% Encapsulation (Ribogreen)” value in data set [4] (setting [5]) turned out to be 99.4%; in data set [4] (setting [6]) it was 99.1%.

As for `CC(C)CCC[C@@H](C)[C@H]1CC[C@H]2[C@@H]3CC=C4C[C@@H](OC(=O)N(CCCCNCC(C)(C)CN)CC(C)(C)CN)CC[C@]4(C)[C@H]3CC[C@]12C` [SA77, (3S,8S,9S,10R,13R,14S,17R)-10,13-dimethyl-17-((R)-6-methylheptan-2-yl)-2,3,4,7,8,9,10,11,12,13,14,15,16,17-tetradecahydro-1H-cyclopenta[a]phenanthren-3-yl (3-amino-2,2-dimethylpropyl)(4-((3-amino-2,2-dimethylpropyl)amino)butyl)carbamate trihydrochloride], the figures for the “Diameter (nm)” value in data set [1] (setting [5]) and in data set [1] (setting [6]) were 83.9 nm and 74 nm, respectively. For the same compound, the PDI was 0.13 in data set [1] (setting [5]) and 0.20 in data set [1] (setting [6]). Further, the “Average fold-change in CFTR signal intensity per cell compared to buffer control ± standard deviation” value in the data set on HeLa cells [2] is reported as 12.2 ± 1.3 fold-change. For the same compound, the “Average Relative Light Units ± Standard Deviation” value in the data set with HeLa cells [3] was 39191.9 ± 4319 Relative Light Units. Also, the results for the “% Encapsulation (Ribogreen)” value in data set [4] (setting [5]) and in data set [4] (setting [6]) were 100% and 98.2%, respectively.

In the case of `CC[C@H](CC[C@@H](C)[C@H]1CC[C@H]2[C@@H]3CC=C4C[C@@H](OC(=O)CCC(=O)N(CCC(C)N)CCC(C)N)CC[C@]4(C)[C@H]3CC[C@]12C)C(C)C` (stereo partly drawn) [SA168, (3S,8S,9S,10R,13R,14S,17R)-17-((2R,5R)-5-ethyl-6-methylheptan-2-yl)-10,13-dimethyl-2,3,4,7,8,9,10,11,12,13,14,15,16,17-tetradecahydro-1H-cyclopenta[a]phenanthren-3-yl 4-(bis(3-aminobutyl)amino)-4-oxobutanoate dihydrochloride], the figures for the “Diameter (nm)” value in data set [1] (setting [5]) and in data set [1] (setting [6]) were 76.1 nm and 79 nm, respectively. The PDI in data set [1] (setting [5]) was determined as 0.15; in data set [1] (setting [6]), 0.16. Also, the “Average fold-change in CFTR signal intensity per cell compared to buffer control ± standard deviation” value in the data set on HeLa cells [2] was 14.8 ± 0.7 fold-change. Besides, in the data set with HeLa cells [3], the “Average Relative Light Units ± Standard Deviation” value came to 35639.5 ± 6688.9 Relative Light Units. The “% Encapsulation (Ribogreen)” value in data set [4] (setting [5]) and in data set [4] (setting [6]) was 99.3% in each case.

Regarding `CC(C)CCC[C@@H](C)[C@H]1CC[C@H]2[C@@H]3CC=C4C[C@@H](SSCCC(=O)N(CCCCNCCC(C)N)CCC(C)N)CC[C@]4(C)[C@H]3CC[C@]12C` (stereo partly drawn) [SA171, N-(3-aminobutyl)-N-(4-((3-aminobutyl)amino)butyl)-3-(((3S,8S,9S,10R,13R,14S,17R)-10,13-dimethyl-17-((R)-6-methylheptan-2-yl)-2,3,4,7,8,9,10,11,12,13,14,15,16,17-tetradecahydro-1H-cyclopenta[a]phenanthren-3-yl)disulfaneyl)propanamide trihydrochloride], the figures for the “Diameter (nm)” value in data set [1] (setting [5]) and in data set [1] (setting [6]) were 71.3 nm and 73 nm, respectively. In addition, the results for the PDI in data set [1] (setting [5]) and in data set [1] (setting [6]) were 0.11 and 0.23, respectively. The “Average fold-change in CFTR signal intensity per cell compared to buffer control ± standard deviation” value with HeLa cells [2] came to 18.9 ± 1.9 fold-change. Also, the “Average Relative Light Units ± Standard Deviation” value in the data set on HeLa cells [3] is reported as 22232.4 ± 9084.1 Relative Light Units. Besides, the results for the “% Encapsulation (Ribogreen)” value in data set [4] (setting [5]) and in data set [4] (setting [6]) were 99.4% and 99.2%, respectively.
